In the assay the test system is virulent culture of M. haemolytica (Oklahoma State strain). It counts as in vivo, beef calves. The note with it: conclusion over vaccination and challenge study in calves. As to the method: For the vaccination challenge, 5 ml of a virulent culture of M. haemolytica (Oklahoma State strain) was administered by transthoracic injection into the right and left caudal lung lobes of each calf (10 ml of culture per calf) on Day 34 of the study. The inoculum contained approximately 5.6×10^8 CFU/ml.
One animal in T01 died immediately following challenge due to pulmonary hemorrhage as a result of challenge administration; thus its lung lesion data was excluded from the analysis. One animal in T03 was found dead on Day 37 as a result of severe pneumonia but was necropsied and its lung data was analyzed along with the data from the other animals. There were no significant differences between the treatment groups (P>0.05).

Turning to Tulathromycin, the “Overall adjuvant function / immune response indicators (antibody production, attitude, respiratory effort, lung lesions)” value is reported as “appeared to effectively replace the adjuvant”.
